This is an account of results in patent publication US6693120B1, “Spray drying of thrombin inhibitors” (Abbott GmbH & Co. KG, priority 1999, dated 2004).

What all share (format): physicochemical
The nature of series [1]: Storage stability at 70° C., 1 bar in an open vessel (HPLC).
A short description of series [2]: HPLC content of the active substance after drying.
Series [3] in a line: Hygroscopicity: weight gain on storage in desiccators at constant humidity. More on the design: unit not given here. The settings on record: vacuum-dried. The method, then:
To determine the hygroscopicity, samples of the dry active substance are stored in desiccators in which a constant humidity has been set by saturated salt solutions, at constant temperature. The weight change is determined by weighing at intervals of a few days. The weight gain is determined by the following formula: [formula]

For “N-((Hydroxycarbonyl)methylen)-(R)-cyclohexylalanyl-(S)-3,4-dehydroproline 6-Amidino-3-picolinylamide Dihydrochloride [Betaine × 2HCl]”, the “active substance content based on initial active substance content” value (from here on “active substance content based”) stood at 100 HPLC % areas in series [1] (0 days), 99.7 HPLC % areas in series [1] (7 days) and 99.7 HPLC % areas in series [1] (14 days).
Regarding “N-((Hydroxycarbonyl)methylene)-(R)-cyclohexylalanyl-(S)-3,4-dehydroproline 6-Amidino-3-picolinylamide Hydrochloride [Betaine × HCl]”, the “HPLC content of the active substance in % areas” value in series [2] (spray dried) stood at 98.5%; in series [2] (vacuum dried (60° C./12 h)), 97.8%. Moreover, the byproducts result in series [2] (spray dried) is reported as “no additional”; in series [2] (vacuum dried (60° C./12 h)) it was “additional byproducts”. Also, the weight gain in series [3] (45% R.H., 0 days) is 0; in series [3] (45% R.H., 3 days), 0.28; in series [3] (45% R.H., 6 days), 0.31; in series [3] (45% R.H., 9 days) it was 0.26; in series [3] (45% R.H., 14 days) it was 0.23; in series [3] (45% R.H., 21 days) it was 0.26. Besides, the weight gain in series [3] (65% R.H., 0 days) is given as 0; in series [3] (65% R.H., 3 days), 3.50; in series [3] (65% R.H., 6 days) it was 3.86; in series [3] (65% R.H., 9 days), 3.59; in series [3] (65% R.H., 14 days), 3.54; in series [3] (65% R.H., 21 days), 3.45. Also, the weight gain is reported as 0 in series [3] (75% R.H., 0 days); 7.60 in series [3] (75% R.H., 3 days); 9.31 in series [3] (75% R.H., 6 days); 7.98 in series [3] (75% R.H., 9 days); 7.84 in series [3] (75% R.H., 14 days); 7.86 in series [3] (75% R.H., 21 days). Besides, the weight gain in series [3] (86% R.H., 0 days) is 0; in series [3] (86% R.H., 3 days) it was 15.51; in series [3] (86% R.H., 6 days), 20.23; in series [3] (86% R.H., 9 days) it was 16.66; in series [3] (86% R.H., 14 days), 16.61; in series [3] (86% R.H., 21 days) it was 16.14. Besides, the weight gain is listed as 0 in series [3] (93% R.H., 0 days); 19.73 in series [3] (93% R.H., 3 days); 20.34 in series [3] (93% R.H., 6 days); 18.97 in series [3] (93% R.H., 9 days); 19.11 in series [3] (93% R.H., 14 days); 18.78 in series [3] (93% R.H., 21 days). For the same substance, the “active substance content based” value in series [1] (0 days) stood at 100 HPLC % areas; in series [1] (7 days), 98.5 HPLC % areas; in series [1] (14 days), 97.5 HPLC % areas.
As for “N-((Hydroxycarbonyl)methylene)-(R)-cyclohexylalanyl-(S)-3,4-dehydroproline 6-Amidino-3-Picoli-nylamide [Betaine (n = 0)]”, the “active substance content based” value amounted to 100 HPLC % areas in series [1] (0 days), 92.5 HPLC % areas in series [1] (7 days) and 88.6 HPLC % areas in series [1] (14 days).
